Experimental data as given in patent US12601740B2 (priority 2021, dated 2026).
Values after ≈ are worked out from the molar mass of the structure shown.

Assays:
E. coli O157:H7 = assay: microbe, parasite or virus in culture; format: cell-based; settings: Escherichia coli; E. coli strain O157:H7 in urine, ~1×10^6 cfu/mL, phage T7 amplification 2 hours at 37° C.
E. coli BAA 196 = assay: MIC by phage T7 amplification ELISA, serial microdilution in urine; settings: Escherichia coli, BAA196, 2 h
E. coli BAA 197 = assay: as above; settings: Escherichia coli, BAA197, 2 h
E. coli BAA 198 = assay: as above; settings: Escherichia coli, BAA198, 2 h
E. coli BAA 2340 = assay: as above; settings: Escherichia coli, BAA2340, 2 h
E. coli BAA 2452 = assay: as above; settings: Escherichia coli, BAA2452, 2 h
E. coli BAA 2471 = assay: as above; settings: Escherichia coli, BAA2471, 2 h
E. coli BAA 2523 = assay: as above; settings: Escherichia coli, BAA2523, 2 h
E. coli 15597 = assay: as above; settings: Escherichia coli, 15597, 2 h

Row | SMILES | MIC (E. coli O157:H7) [µg/mL] | MIC (E. coli BAA 196) [µg/mL] | MIC (E. coli BAA 197) [µg/mL] | MIC (E. coli BAA 198) [µg/mL] | MIC (E. coli BAA 2340) [µg/mL] | MIC (E. coli BAA 2452) [µg/mL] | MIC (E. coli BAA 2471) [µg/mL] | MIC (E. coli BAA 2523) [µg/mL] | MIC (E. coli 15597) [µg/mL]
1 | CO/N=C(\C(=O)N[C@@H]1C(=O)N2C(C(=O)[O-])=C(C[N+]3(C)CCCC3)CS[C@H]12)c1csc(N)n1 [Cefepime] | 8 (≈ 16.6 µM) | 64 (≈ 133 µM) | > 64 | 64 (≈ 133 µM) | 68 (≈ 141 µM) | 68 (≈ 141 µM) | > 256 | 16 (≈ 33.3 µM) | 8 (≈ 16.6 µM)
2 | CC(C)(O/N=C(\C(=O)N[C@@H]1C(=O)N2C(C(=O)[O-])=C(C[n+]3ccccc3)CS[C@H]12)c1csc(N)n1)C(=O)O [Ceftazidime] | 256 (≈ 468 µM) | > 64 | > 64 | > 64 | > 64 | 16 (≈ 29.3 µM) | > 256 | > 256 | 0.5 (≈ 0.915 µM)
3 | CO/N=C(\C(=O)N[C@@H]1C(=O)N2C(C(=O)O)=C(CSc3nc(=O)c(=O)[nH]n3C)CS[C@H]12)c1csc(N)n1 [Ceftriaxone] | 64 (≈ 115 µM) | > 64 | > 64 | > 64 | > 64 | 68 (≈ 123 µM) | > 256 | 256 (≈ 462 µM) | 8 (≈ 14.4 µM)
4 | C[C@@H](O)[C@H]1C(=O)N2C(C(=O)O)=C(S[C@@H]3CN[C@H](CNS(N)(=O)=O)C3)[C@H](C)[C@H]12 [Doripenem] | 0.25 (≈ 0.595 µM) | 16 (≈ 38 µM) | 32 (≈ 76.1 µM) | 32 (≈ 76.1 µM) | 16 (≈ 38 µM) | 16 (≈ 38 µM) | 256 (≈ 609 µM) | 0.5 (≈ 1.19 µM) | > 64
5 | C[C@@H](O)[C@H]1C(=O)N2C(C(=O)O)=C(S[C@@H]3CN[C@H](C(=O)Nc4cccc(C(=O)O)c4)C3)[C@H](C)[C@H]12 [Ertapenem] | 2 (≈ 4.21 µM) | 64 (≈ 135 µM) | > 64 | 64 (≈ 135 µM) | 68 (≈ 143 µM) | 16 (≈ 33.6 µM) | > 256 | 8 (≈ 16.8 µM) | 0.5 (≈ 1.05 µM)
6 | C[C@@H](O)[C@H]1C(=O)N2C(C(=O)O)=C(SCCN=CN)C[C@H]12 [Imipenem] | 64 (≈ 214 µM) | 16 (≈ 53.4 µM) | 32 (≈ 107 µM) | 64 (≈ 214 µM) | > 64 | 256 (≈ 855 µM) | 32 (≈ 107 µM) | 64 (≈ 214 µM) | 4 (≈ 13.4 µM)
7 | C[C@@H](O)[C@H]1C(=O)N2C(C(=O)O)=C(S[C@@H]3CN[C@H](C(=O)N(C)C)C3)[C@H](C)[C@H]12 [Meropenem] | 0.25 (≈ 0.652 µM) | 16 (≈ 41.7 µM) | 64 (≈ 167 µM) | 16 (≈ 41.7 µM) | 16 (≈ 41.7 µM) | 16 (≈ 41.7 µM) | 16 (≈ 41.7 µM) | 1 (≈ 2.61 µM) | > 64
8 | Cc1onc(-c2ccccc2)c1C(=O)N[C@@H]1C(=O)N2[C@@H]1SC(C)(C)[C@@H]2C(=O)O [Oxacillin] | > 256 | > 64 | > 64 | > 64 | > 64 | 64 (≈ 159 µM) | > 256 | 256 (≈ 638 µM) | 64 (≈ 159 µM)
